A value given as a limit tells only on which side of the number the result lay.

These results are taken from patent US20220241413A1, “COMBINATION THERAPIES USING CD-38 ANTIBODIES” (Takeda Pharmaceutical Company Limited, priority 2019, published 2022).

In data set [1] the test system is relapsed and refractory multiple myeloma (RRMM). As to the kind of experiment: AB79-1501 study, AB79 monotherapy SC in RRMM: disease response. It counts as in vivo, human. The following applies: at the RP2D, anti-CD38 naïve patients who received at least cycle 1. The text has this: The AB79-1501 study is a Phase 1b/2a multicenter, open-label, dose-escalation, single-arm study in patients with relapsed and refractory multiple myeloma (RRMM), who were previously treated with at least a proteasome inhibitor (PI), an immunomodulatory drug (IMiD), an alkylating agent, and a steroid. Patients eligible for study enrollment are refractory or intolerant to at least one PI and at least one IMiD, and have received either ≥3 prior therapies or ≥2 prior therapies, if one of those therapies included a combination of a PI and an IMiD. In the phase 1b dose-escalation part of the study, patients who were previously exposed to an anti-CD38 agent are eligible; however, this criterion is not required. In the phase 2a expansion part of the study, patients were also refractory to at least one anti-CD38 monoclonal therapy at any time during prior treatment. The study was designed to evaluate the safety and tolerability of subcutaneously administered AB79 monotherapy in patients with RRMM, to determine the recommended phase 2 dose (RP2D), and to provide a preliminary assessment of its single-agent activity against RRMM, including in patients who are refractory to daratumumab. Parameters such as safety, tolerability, pharmacokinetics (PK), pharmacodynamics, and disease response were assessed.
As of the data cutoff, nineteen (19) patients were treated in the dose-escalation portion of the ongoing study in patients with RRMM and have completed at least 1 cycle: 4 patients in the first cohort (45 mg); 3 patients in the second cohort (135 mg); 6 patients in the third cohort (300 mg); and 6 patients in the fourth cohort (600 mg). The most common TEAEs (in ≥10% of patients) regardless of causality in the total population as of this date are fatigue and upper respiratory infection (27% each), insomnia (22%), diarrhea and nausea (17% each), headache and anemia (15% each), neutropenia, abdominal distension, back pain, and hypertension (12% each), cough and pneumonia (10% each). […] The RP2D was determined to be 600 mg with AB79 monotherapy. […]

In data set [2] the test system is plasmablasts in peripheral blood. As to the kind of experiment: Phase 1 study in healthy subjects (AB79-101): plasmablast levels. The following applies: SC. The format is in vivo, human. How it is done:
(§1) In a phase 1 study in healthy subjects (Study AB79-101), AB79 reduced the levels of peripheral blood and natural killer (NK) cells >90% from baseline in all subjects receiving a single 0.06 mg/kg IV dose of AB79, with a maximum observed concentration (Cmax) of 0.1 μg/mL. (U.S. Pat. No. 8,362,211; U.S. International Patent Application Serial Nos. PCT/US2019/013547 and PCT/US2019/024431). […] Potent reduction of plasmablasts was observed across cohorts of patients in the RRMM trial (Study AB79-1501). […] Consequently, AB79 may be more efficient at eliminating cells expressing high levels of CD38, which could manifest as higher activity on tumor cells (e.g., improved and deeper response rates across a population of patients with myeloma).
(§2) AB79 IV reduced the levels of peripheral blood NK cells >90% from baseline levels in all subjects receiving a single 0.06 mg/kg IV dose, with a Cmax of 0.1 μg/mL. […] As a potent and convenient second-generation anti-CD38 mAb, AB79 SC warranted therapeutic development for the treatment of multiple myeloma (MM).

The subject of data set [3] is peripheral blood NK cells. Put plainly: Phase 1 study in healthy subjects (AB79-101): NK cell levels. The settings on record: all subjects receiving a single 0.06 mg/kg IV dose. The format is in vivo, human. The method, then: as §1, §2
The nature of data set [4]: AB79-1501 study, AB79 plus PomDex combination cohort in RRMM: safety. It counts as in vivo. The text has this:
This is a multicenter, dose-escalation, open-label, single-arm, Phase 1/2a study designed to determine the safety, tolerability, efficacy, PK, and immunogenicity of AB79 monotherapy in patients with RRMM, and to provide a preliminary assessment of its activity against MM.
The phase 1 portion of the study evaluates administration of single agent AB79 for dose-limiting toxicity (DLT) to determine the MTD or the RP2D for further assessment in phase 2a. A recommended dose below the MTD is identified based on the review of safety, PK, PD (e.g., CD38 occupancy), and clinical data from the phase 1 portion of the study. The safety and tolerability of AB79 is assessed by recording and analyzing TEAEs, dose modifications, treatment discontinuations, vital signs, physical examinations, serum chemistry and hematology, urinalysis, ECGs, and concomitant medications. In phase 1, approximately 6 doses of AB79 are evaluated in ascending cohorts of 3 to 6 patients per cohort. Cohorts may be expanded by enrolling additional patients to further inform selection of the RP2D before enrolling in the Phase 2a portion of the study. In the phase 2a portion of this study, Grade 4 or higher nonhematologic toxicity is monitored starting from the first 10 enrolled patients and then every 10 patients thereafter. Additionally, a cohort of patients receive AB79 combined with the backbone regimen of pomalidomide and dexamethasone (PomDex) in patients with RRMM who have received at least 2 prior therapies and are refractory to the last therapy before study entry.
The study provides a Confirmation Cohort and a Combination Cohort. Each Cohort is administered a dose of 300 mg AB79 subcutaneously weekly for 8 weeks during Cycles 1 and 2 (8 doses), every other week during Cycles 3 to 6 for 16 weeks (8 doses), and then once every 4 weeks until PD in subsequent cycles. Safety and available efficacy, PK, and pharmacodynamics are reviewed at least after 6 patients in each subgroup have received 1 cycle of therapy, then on an ongoing basis. […] The Combination Cohort also receives pomalidomide and dexamethasone (PomDex), and given according to product labeling (Pomalyst USPI). […] In the Combination Cohort, up to 6 patients are initially enrolled and safety in Cycle 1 reviewed. […] If 2 of 6 patients develop DLTs, an additional cohort of 6 patients is tested at a de-escalated dose; an intermediate or more conservative dose schedule may also be implemented as a means to provide an overall lower dose. A lower dose of pomalidomide is also considered based on available safety data. […] If 2 of 6 patients develop DLTs at the lower dose, this cohort is stopped for further evaluation.

[5] abbreviates: AB79 plus PomDex, RRMM, 5 patients treated.

As to “AB79: anti-CD38 monoclonal IgG1 antibody; heavy chain SEQ ID NO:11, light chain SEQ ID NO:12”, in data set [1], the “clinical benefit rate (minor response or better)” value came out at 73%, the “disease control rate (stable disease or better)” value is 91% and the “preliminary objective response rate (ORR)” value is reported as 36%. Also, the “reduction of levels of circulating plasmablasts in peripheral blood” value in data set [2] is given as “dose-dependent manner”. In addition, the “reduction of levels of peripheral blood NK cells from baseline” value in data set [3] is listed as above 90%. For the same substance, in data set [4] (AB79 plus PomDex cohort), the “number of DLTs (neutropenia)” value is listed as 1 DLT. Further, in data set [4] (AB79 plus PomDex combination), the “drug-related SAEs or AEs leading to study drug discontinuation, or on-study deaths” value is reported as “No” and the systemic reactions entry is on record as “no systemic reactions”. Further, in data set [4] (setting [5]), the “TEAE regardless of causality: cough” value stood at 2 patients and the “TEAE regardless of causality: neutropenia” value amounted to 2 patients.
